The target in assay [1] is T1, Sodium/glucose cotransporter 2 (Homo sapiens) (UniProt P31639).
T1 sequence (whole entry): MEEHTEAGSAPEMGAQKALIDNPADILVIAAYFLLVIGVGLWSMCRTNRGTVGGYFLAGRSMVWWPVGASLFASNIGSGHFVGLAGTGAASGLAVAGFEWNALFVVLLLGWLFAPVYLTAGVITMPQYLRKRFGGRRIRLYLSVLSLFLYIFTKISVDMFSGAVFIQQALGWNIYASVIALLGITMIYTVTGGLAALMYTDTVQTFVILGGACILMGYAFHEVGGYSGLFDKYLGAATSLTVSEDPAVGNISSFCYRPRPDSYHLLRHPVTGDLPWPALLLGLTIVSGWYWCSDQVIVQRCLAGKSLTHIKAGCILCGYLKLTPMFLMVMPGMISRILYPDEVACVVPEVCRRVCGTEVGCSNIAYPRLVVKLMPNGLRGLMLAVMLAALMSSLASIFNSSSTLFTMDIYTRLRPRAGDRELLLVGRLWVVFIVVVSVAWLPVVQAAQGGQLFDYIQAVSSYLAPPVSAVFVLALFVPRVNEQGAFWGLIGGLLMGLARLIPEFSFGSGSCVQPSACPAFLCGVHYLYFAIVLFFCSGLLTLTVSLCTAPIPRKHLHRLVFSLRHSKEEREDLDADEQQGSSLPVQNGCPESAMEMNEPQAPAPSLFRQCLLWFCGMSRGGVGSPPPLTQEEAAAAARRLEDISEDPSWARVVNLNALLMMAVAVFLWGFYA
As to the kind of experiment: Inhibition of full-length human SGLT2 expressed in CHO cells assessed as decrease in [14C]-methyl alpha-D-glucopyranoside uptake at 0.5 uM after 1 hr by liquid scintillation counting method. The assay is classed as cell-based.

Assay [2] has as its target T2, Sodium/glucose cotransporter 2 (Homo sapiens, UniProt P31639).
T2 sequence (P31639 whole entry): T1 sequence (whole entry)
As to the kind of experiment: Inhibition of full-length human SGLT2 expressed in CHO cells assessed as decrease in [14C]-methyl alpha-D-glucopyranoside uptake after 1 hr by liquid scintillation counting method. It counts as cell-based.

In general, inhibition refers to the change of the read-out against control, counted positive when it falls. Regarding `COc1ccc(Cc2cc3c(cc2Cl)O[C@H]2[C@@H](O)[C@H](O)[C@@H](CO)O[C@@H]32)cc1`, the inhibition in assay [1] was 30.7%.
The IC50 is the concentration needed to halve the response being measured. `CCOc1ccc(Cc2cc([C@@H]3O[C@H](CO)[C@@H](O)[C@H](O)[C@H]3O)c(O)cc2Cl)cc1`: in assay [2], the IC50 amounted to 1.03 nM. The inhibition in assay [1] was 89.7%.
`Cc1ccc(Cc2cc([C@@H]3O[C@H](CO)[C@@H](O)[C@H](O)[C@H]3O)c(O)cc2Cl)cc1`: the half-maximal inhibitory concentration (IC50) in assay [2] was 0.81 nM. In addition, the inhibition in assay [1] is 101%.
For `CCc1ccc(Cc2cc([C@@H]3O[C@H](CO)[C@@H](O)[C@H](O)[C@H]3O)c(O)cc2Cl)cc1`, in that order: 0.63 nM and 100%.
`CCOc1ccc(Cc2cc([C@@H]3O[C@H](CO)[C@@H](O)[C@H](O)[C@H]3O)ccc2Cl)cc1`: the inhibition in assay [1] amounted to 103%.
As for `OC[C@H]1O[C@H]2c3cc(Cc4cc5ccccc5s4)ccc3O[C@H]2[C@@H](O)[C@@H]1O`, the inhibition in assay [1] was found to be 1.8%.
For `CCOc1ccc(Cc2ccc3c(c2)[C@@H]2O[C@H](CO)[C@@H](O)[C@H](O)[C@@H]2O3)cc1`, the inhibition in assay [1] was determined as 66.5%.
With `Cc1ccc(Cc2cc3c(cc2Cl)O[C@H]2[C@@H](O)[C@H](O)[C@@H](CO)O[C@@H]32)cc1`, the inhibition in assay [1] was 4.2%.
As for `COc1ccc(Cc2cc([C@@H]3O[C@H](CO)[C@@H](O)[C@H](O)[C@H]3O)c(O)cc2Cl)cc1`, the IC50 in assay [2] was determined as 1.08 nM. Moreover, the inhibition in assay [1] stood at 106%.
Take `OC[C@H]1O[C@@H](c2cc(Cc3cc4ccccc4s3)ccc2O)[C@H](O)[C@@H](O)[C@@H]1O`: in assay [1], the inhibition amounted to 103%.
Still for that read-out and setting: the result for `CCc1ccc(Cc2cc3c(cc2Cl)O[C@H]2[C@@H](O)[C@H](O)[C@@H](CO)O[C@@H]32)cc1` reads 19.3%.
`CCOc1ccc(Cc2ccc(O)c([C@@H]3O[C@H](CO)[C@@H](O)[C@H](O)[C@H]3O)c2)cc1`: the half-maximal inhibitory concentration (IC50) in assay [2] amounted to 12.2 nM. For the same compound, the inhibition in assay [1] is 104%.
Take `OC[C@H]1O[C@H]2c3cc(Cc4cc5ccccc5s4)c(Cl)cc3O[C@H]2[C@@H](O)[C@@H]1O`: the inhibition in assay [1] turned out to be 48.7%.
As to `OC[C@H]1O[C@@H](c2cc(Cc3cc4ccccc4s3)c(Cl)cc2O)[C@H](O)[C@@H](O)[C@@H]1O`, in assay [1], the inhibition was 97.5%.
In the case of `CCOc1ccc(Cc2cc3c(cc2Cl)O[C@H]2[C@@H](O)[C@H](O)[C@@H](CO)O[C@@H]32)cc1`, the inhibition in assay [1] was found to be 8.6%.

These data come from ChEMBL document CHEMBL4118179, “Synthesis and biological evaluation of 6-hydroxyl C-aryl glucoside derivatives as novel sodium glucose co-transporter 2 (SGLT2) inhibitors” (Bioorg Med Chem Lett, 2018).
